Laboratory results from the supplement of paper PMC11451515.

Tested on: P12-Ichikawa
Assay: cell viability relative to DMSO control; higher = less cytotoxic
Conditions: 48 h
How it was run: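 Cells were incubated for 48 h at 37°C before CellTiter-Glo One luminescence was read. The cells were NOMO1 or SEM (500 cells/well) or P12-Ichikawa (1000 cells/well) leukemia cells, adapted for at least four passages in each medium and seeded in 1536-well plates (5 μl). Dosing used library compounds in DMSO applied by pin over 11 threefold points, 47 μM to 0.79 nM. Viability is the per-plate percentage of DMSO wells, with cell-free wells as background.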

[1] = HPLM + 10% dialyzed FBS, 0.000781 µM
[2] = HPLM + 10% dialyzed FBS, 0.00234 µM
[3] = HPLM + 10% dialyzed FBS, 0.00702 µM
[4] = HPLM + 10% dialyzed FBS, 0.0211 µM
[5] = HPLM + 10% dialyzed FBS, 0.0632 µM
[6] = HPLM + 10% dialyzed FBS, 0.19 µM
[7] = HPLM + 10% dialyzed FBS, 0.569 µM
[8] = HPLM + 10% dialyzed FBS, 1.71 µM
[9] = HPLM + 10% dialyzed FBS, 5.12 µM
[10] = HPLM + 10% dialyzed FBS, 15.4 µM
[11] = HPLM + 10% dialyzed FBS, 46.1 µM
[12] = RPMI 5 mM glucose + 10% FBS, 0.000781 µM
[13] = RPMI 5 mM glucose + 10% FBS, 0.00234 µM
[14] = RPMI 5 mM glucose + 10% FBS, 0.00702 µM
[15] = RPMI 5 mM glucose + 10% FBS, 0.0211 µM
[16] = RPMI 5 mM glucose + 10% FBS, 0.0632 µM
[17] = RPMI 5 mM glucose + 10% FBS, 0.19 µM
[18] = RPMI 5 mM glucose + 10% FBS, 0.569 µM
[19] = RPMI 5 mM glucose + 10% FBS, 1.71 µM
[20] = RPMI 5 mM glucose + 10% FBS, 5.12 µM
[21] = RPMI 5 mM glucose + 10% FBS, 15.4 µM
[22] = RPMI 5 mM glucose + 10% FBS, 46.1 µM
[23] = RPMI 5 mM glucose + 10% dialyzed FBS, 0.000781 µM
[24] = RPMI 5 mM glucose + 10% dialyzed FBS, 0.00234 µM
[25] = RPMI 5 mM glucose + 10% dialyzed FBS, 0.00702 µM
[26] = RPMI 5 mM glucose + 10% dialyzed FBS, 0.0211 µM
[27] = RPMI 5 mM glucose + 10% dialyzed FBS, 0.0632 µM
[28] = RPMI 5 mM glucose + 10% dialyzed FBS, 0.19 µM
[29] = RPMI 5 mM glucose + 10% dialyzed FBS, 0.569 µM
[30] = RPMI 5 mM glucose + 10% dialyzed FBS, 1.71 µM
[31] = RPMI 5 mM glucose + 10% dialyzed FBS, 5.12 µM
[32] = RPMI 5 mM glucose + 10% dialyzed FBS, 15.4 µM
[33] = RPMI 5 mM glucose + 10% dialyzed FBS, 46.1 µM

Cc1cccc(C#Cc2ccccc2)n1 showed a cell viability [1] of 120%, a cell viability [2] of 128% and a cell viability [3] of 124%. For the same compound, the cell viability [4] was 124%, the cell viability [5] was 125% and the cell viability [6] was 122%. The cell viability [7] was 112%, the cell viability [8] was 121% and the cell viability [9] was 113%. The cell viability [10] was 117% and the cell viability [11] was 105%.
For COC[C@@H](NC(C)=O)C(=O)NCc1ccccc1, the cell viability [1] was 117%, the cell viability [2] was 101% and the cell viability [3] was 107%. For the same compound, the cell viability [4] was 118%, the cell viability [5] was 118% and the cell viability [6] was 110%. The cell viability [7] was 110%, the cell viability [8] was 111% and the cell viability [9] was 113%. For the same compound, the cell viability [10] was 104%, the cell viability [11] was 12.8% and the cell viability [12] was 94.8%. It also gave a cell viability [13] of 100%, a cell viability [14] of 112% and a cell viability [15] of 112%. It also gave a cell viability [16] of 113%, a cell viability [17] of 121% and a cell viability [18] of 111%. For the same compound, the cell viability [19] was 110%, the cell viability [20] was 106% and the cell viability [21] was 110%. It also gave a cell viability [22] of 53.5%, a cell viability [23] of 105% and a cell viability [24] of 118%. The cell viability [25] was 106%, the cell viability [26] was 110% and the cell viability [27] was 96.9%. The cell viability [28] was 109%, the cell viability [29] was 108% and the cell viability [30] was 116%. The cell viability [31] was 104%, the cell viability [32] was 109% and the cell viability [33] was 59.8%.
Cc1cc(Nc2nc(N[C@@H](C)c3ncc(F)cn3)ncc2Cl)n[nH]1 showed a cell viability [1] of 95.1%, a cell viability [2] of 111% and a cell viability [3] of 109%. The cell viability [4] was 114%, the cell viability [5] was 116% and the cell viability [6] was 119%. It also gave a cell viability [7] of 126%, a cell viability [8] of 108% and a cell viability [9] of 70.6%. For the same compound, the cell viability [10] was 55%, the cell viability [11] was 56.9% and the cell viability [12] was 113%. It also gave a cell viability [13] of 122%, a cell viability [14] of 116% and a cell viability [15] of 126%. The cell viability [16] was 112%, the cell viability [17] was 112% and the cell viability [18] was 118%. It also gave a cell viability [19] of 118%, a cell viability [20] of 115% and a cell viability [21] of 98%. For the same compound, the cell viability [22] was 42.5%, the cell viability [23] was 109% and the cell viability [24] was 110%. For the same compound, the cell viability [25] was 119%, the cell viability [26] was 117% and the cell viability [27] was 121%. The cell viability [28] was 119%, the cell viability [29] was 109% and the cell viability [30] was 118%. For the same compound, the cell viability [31] was 90.8%, the cell viability [32] was 50.6% and the cell viability [33] was 45.2%.
COc1cc2c(Nc3ccc(Cl)c(Cl)c3F)ncnc2cc1OC[C@@H]1C[C@@H]2CN(C)C[C@@H]2C1 showed a cell viability [1] of 105%, a cell viability [2] of 115% and a cell viability [3] of 118%. For the same compound, the cell viability [4] was 126%, the cell viability [5] was 119% and the cell viability [6] was 111%. The cell viability [7] was 109%, the cell viability [8] was 83.2% and the cell viability [9] was 71.1%. For the same compound, the cell viability [10] was 49.5% and the cell viability [11] was 10.1%.
CC(=O)Nc1ccc([C@H](C)C(=O)Nc2ncc(C(C)C)s2)cc1 gave a cell viability [1] of 97.9%, a cell viability [2] of 101% and a cell viability [3] of 94.5%. For the same compound, the cell viability [4] was 98.4%, the cell viability [5] was 100% and the cell viability [6] was 92.1%. It also gave a cell viability [7] of 96.7%, a cell viability [8] of 94.4% and a cell viability [9] of 89.9%. For the same compound, the cell viability [10] was 24.6%, the cell viability [11] was 5.24% and the cell viability [12] was 95.6%. The cell viability [13] was 96.9%, the cell viability [14] was 101% and the cell viability [15] was 95.1%. The cell viability [16] was 93.3%, the cell viability [17] was 93.8% and the cell viability [18] was 97.6%. For the same compound, the cell viability [19] was 107%, the cell viability [20] was 101% and the cell viability [21] was 26%. It also gave a cell viability [22] of 6.22%, a cell viability [23] of 99.3% and a cell viability [24] of 89.5%. For the same compound, the cell viability [25] was 97.2%, the cell viability [26] was 99.5% and the cell viability [27] was 110%. The cell viability [28] was 101%, the cell viability [29] was 99.4% and the cell viability [30] was 99.7%. It also gave a cell viability [31] of 83.7%, a cell viability [32] of 22.8% and a cell viability [33] of 5.31%.
N[S+](=O)([O-])c1cc(Cl)c(Cl)c([S+](N)(=O)[O-])c1 gave a cell viability [1] of 116%, a cell viability [2] of 108% and a cell viability [3] of 112%. For the same compound, the cell viability [4] was 112%, the cell viability [5] was 107% and the cell viability [6] was 105%. The cell viability [7] was 92.3%, the cell viability [8] was 102% and the cell viability [9] was 108%. For the same compound, the cell viability [10] was 101%, the cell viability [11] was 97.9% and the cell viability [12] was 100%. The cell viability [13] was 109%, the cell viability [14] was 109% and the cell viability [15] was 113%. It also gave a cell viability [16] of 100%, a cell viability [17] of 103% and a cell viability [18] of 106%. For the same compound, the cell viability [19] was 97.3%, the cell viability [20] was 106% and the cell viability [21] was 99.8%. It also gave a cell viability [22] of 100%, a cell viability [23] of 97.5% and a cell viability [24] of 105%. For the same compound, the cell viability [25] was 97%, the cell viability [26] was 101% and the cell viability [27] was 104%. It also gave a cell viability [28] of 101%, a cell viability [29] of 105% and a cell viability [30] of 97.2%. For the same compound, the cell viability [31] was 101%, the cell viability [32] was 98% and the cell viability [33] was 89.8%.
With OCc1ccc(-c2nn(Cc3ccccc3)c3ccccc23)o1 the cell viability [1] was 118%, the cell viability [2] was 109% and the cell viability [3] was 103%. It also gave a cell viability [4] of 107%, a cell viability [5] of 113% and a cell viability [6] of 108%. It also gave a cell viability [7] of 104%, a cell viability [8] of 93.8% and a cell viability [9] of 96.5%. For the same compound, the cell viability [10] was 105%, the cell viability [11] was 73.7% and the cell viability [12] was 117%. For the same compound, the cell viability [13] was 119%, the cell viability [14] was 128% and the cell viability [15] was 126%. For the same compound, the cell viability [16] was 113%, the cell viability [17] was 115% and the cell viability [18] was 117%. The cell viability [19] was 104%, the cell viability [20] was 116% and the cell viability [21] was 113%. For the same compound, the cell viability [22] was 60.9%, the cell viability [23] was 109% and the cell viability [24] was 110%. It also gave a cell viability [25] of 108%, a cell viability [26] of 112% and a cell viability [27] of 100%. It also gave a cell viability [28] of 108%, a cell viability [29] of 113% and a cell viability [30] of 103%. The cell viability [31] was 102%, the cell viability [32] was 98.9% and the cell viability [33] was 49.5%.
With CC(=O)N1CCN(c2ccc(OC[C@H]3CO[C@](Cn4ccnc4)(c4ccc(Cl)cc4Cl)O3)cc2)CC1 the cell viability [1] was 118%, the cell viability [2] was 120% and the cell viability [3] was 118%. It also gave a cell viability [4] of 112%, a cell viability [5] of 108% and a cell viability [6] of 121%. For the same compound, the cell viability [7] was 114%, the cell viability [8] was 105% and the cell viability [9] was 104%. For the same compound, the cell viability [10] was 94%, the cell viability [11] was 63.2% and the cell viability [23] was 109%. It also gave a cell viability [24] of 107%, a cell viability [25] of 110% and a cell viability [26] of 107%. The cell viability [27] was 113%, the cell viability [28] was 106% and the cell viability [29] was 101%. It also gave a cell viability [30] of 101%, a cell viability [31] of 94% and a cell viability [32] of 96.7%. The cell viability [33] was 68.2%.
Compound O=C(CO)N1CCC(c2n[nH]c(-c3ccc(Cl)cc3)c2-c2ccncn2)CC1 has a cell viability [1] of 119%, a cell viability [2] of 104% and a cell viability [3] of 113%. It also gave a cell viability [4] of 112%, a cell viability [5] of 113% and a cell viability [6] of 109%. It also gave a cell viability [7] of 105%, a cell viability [8] of 100% and a cell viability [9] of 97.7%. It also gave a cell viability [10] of 55.7%, a cell viability [11] of 68.4% and a cell viability [12] of 117%. For the same compound, the cell viability [13] was 112%, the cell viability [14] was 118% and the cell viability [15] was 122%. For the same compound, the cell viability [16] was 114%, the cell viability [17] was 113% and the cell viability [18] was 114%. The cell viability [19] was 110%, the cell viability [20] was 87.8% and the cell viability [21] was 24%. For the same compound, the cell viability [22] was 58.5%, the cell viability [23] was 122% and the cell viability [24] was 116%. The cell viability [25] was 114%, the cell viability [26] was 116% and the cell viability [27] was 117%. It also gave a cell viability [28] of 114%, a cell viability [29] of 113% and a cell viability [30] of 101%. For the same compound, the cell viability [31] was 97.7%, the cell viability [32] was 21.7% and the cell viability [33] was 55.4%.
